PubChem BioAssay AID248 (DTP/NCI, 2004)
Where “and” joins values, the source holds several entries; their conditions need not be identical. Equal entries are not always repeated. Inconclusive results and toxic doses are left out. Rule as the data show it: active = T/C of 150% or more; inactive = T/C below 125%.

Test system: L1210 leukemia ip in BDF1 mice, survival T/C
Test: NCI In Vivo Anticancer Drug Screen. Data for tumor model L1210 Leukemia (intraperitoneal) in B6D2F1 (BDF1) mice
Conditions: endpoint: mean survival time, higher = longer survival
Method in brief: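 Tumor was transplanted into mice, which were then dosed with test compound or vehicle alone. Survival was recorded for each group, and the treated figure was expressed relative to the control figure.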

[1] = dose: 100.0 mg/kg/injection, schedule: Q01DX001 (ip), vehicle: carboxymethylcellulose (CMC)
[2] = dose: 200.0 mg/kg/injection, schedule: Q01DX001 (ip), vehicle: carboxymethylcellulose (CMC)
[3] = dose: 400.0 mg/kg/injection, schedule: Q01DX001 (ip), vehicle: carboxymethylcellulose (CMC)
[4] = dose: 100.0 mg/kg/injection, schedule: Q01DX009 (ip), vehicle: Klucel (hydroxypropylcellulose) (HPC)
[5] = dose: 100.0 mg/kg/injection, schedule: Q04DX003 (ip), vehicle: Klucel (hydroxypropylcellulose) (HPC)
[6] = dose: 200.0 mg/kg/injection, schedule: Q01DX009 (ip), vehicle: Klucel (hydroxypropylcellulose) (HPC)
[7] = dose: 200.0 mg/kg/injection, schedule: Q04DX003 (ip), vehicle: Klucel (hydroxypropylcellulose) (HPC)
[8] = dose: 400.0 mg/kg/injection, schedule: Q04DX003 (ip), vehicle: Klucel (hydroxypropylcellulose) (HPC)
[9] = dose: 100.0 mg/kg/injection, schedule: Q04DX003 (ip), vehicle: saline
[10] = dose: 200.0 mg/kg/injection, schedule: Q04DX003 (ip), vehicle: saline
[11] = dose: 400.0 mg/kg/injection, schedule: Q04DX003 (ip), vehicle: saline
[12] = dose: 100.0 mg/kg/injection, schedule: Q01DX001 (ip), vehicle: saline with Tween-80
[13] = dose: 200.0 mg/kg/injection, schedule: Q01DX001 (ip), vehicle: saline with Tween-80
[14] = dose: 100.0 mg/kg/injection, schedule: Q01DX009 (ip), vehicle: saline with Tween-80
[15] = dose: 200.0 mg/kg/injection, schedule: Q01DX009 (ip), vehicle: saline with Tween-80
[16] = dose: 400.0 mg/kg/injection, schedule: Q01DX009 (ip), vehicle: saline with Tween-80
[17] = dose: 100.0 mg/kg/injection, schedule: Q04DX003 (ip), vehicle: saline with Tween-80
[18] = dose: 200.0 mg/kg/injection, schedule: Q04DX003 (ip), vehicle: saline with Tween-80
[19] = dose: 400.0 mg/kg/injection, schedule: Q04DX003 (ip), vehicle: saline with Tween-80

Measured: T/C

CCCCCCCC(=O)N(CC(C)C)CC(C)C
inactive: [1] 102 % of control | dose: 100.0 mg/kg/injection, schedule: Q01DX009 (ip), vehicle: carboxymethylcellulose (CMC) 97 % of control | dose: 100.0 mg/kg/injection, schedule: Q04DX002 (ip), vehicle: carboxymethylcellulose (CMC) 101 % of control and 102 % of control | dose: 100.0 mg/kg/injection, schedule: Q04DX003 (ip), vehicle: carboxymethylcellulose (CMC) 97 % of control | [2] 96 % of control | dose: 200.0 mg/kg/injection, schedule: Q01DX009 (ip), vehicle: carboxymethylcellulose (CMC) 93 % of control and 98 % of control | dose: 200.0 mg/kg/injection, schedule: Q04DX002 (ip), vehicle: carboxymethylcellulose (CMC) 97 % of control and 102 % of control | dose: 200.0 mg/kg/injection, schedule: Q04DX003 (ip), vehicle: carboxymethylcellulose (CMC) 97 % of control | [3] 91 % of control | dose: 400.0 mg/kg/injection, schedule: Q04DX002 (ip), vehicle: carboxymethylcellulose (CMC) 94 % of control | dose: 400.0 mg/kg/injection, schedule: Q04DX003 (ip), vehicle: carboxymethylcellulose (CMC) 90 % of control

Oc1ccc2ccccc2c1-c1c(O)ccc2ccccc12
inactive: dose: 12.5 mg/kg/injection, schedule: Q01DX Z (ip), vehicle: other 106 % of control | dose: 25.0 mg/kg/injection, schedule: Q01DX Z (ip), vehicle: other 103 % of control | dose: 50.0 mg/kg/injection, schedule: Q01DX Z (ip), vehicle: other 106 % of control | [4] 97 % of control | dose: 100.0 mg/kg/injection, schedule: Q01DX Z (ip), vehicle: other 116 % of control | [5] 111 % of control | [6] 94 % of control | [7] 94 % of control | [8] 103 % of control

O=C(Cl)c1ccc(C(Cl)(Cl)Cl)cc1
inactive: [5] 95 % of control | [7] 111 % of control | [8] 104 % of control

CC1=NCCN=C(C)C1
inactive: [9] 96 % of control | [10] 98 % of control | [11] 112 % of control

O=C(O)c1c(F)c(F)c(-c2c(F)c(F)c(F)c(F)c2F)c(F)c1F
inactive: [12] 86 % of control | [13] 91 % of control

CC(=O)n1[nH]c(=O)c2ccccc2c1=O
inactive: dose: 100.0 mg/kg/injection, schedule: Q01DX001 (ip), vehicle: Klucel (hydroxypropylcellulose) (HPC) 103 % of control | dose: 200.0 mg/kg/injection, schedule: Q01DX001 (ip), vehicle: Klucel (hydroxypropylcellulose) (HPC) 105 % of control | dose: 400.0 mg/kg/injection, schedule: Q01DX001 (ip), vehicle: Klucel (hydroxypropylcellulose) (HPC) 103 % of control

CC(=O)NCCC(C)C
inactive: [9] 98 % of control | [10] 98 % of control | [11] 95 % of control

COc1ccc2nc3cc(Cl)ccc3c(NCC3(c4ccccc4)CCN(C)CC3)c2c1
inactive: dose: 12.5 mg/kg/injection, schedule: Q04DX003 (ip), vehicle: saline 97 % of control | dose: 25.0 mg/kg/injection, schedule: Q04DX003 (ip), vehicle: saline 90 % of control

CCOC(=O)C(C(C)=O)c1cc(NS(=O)(=O)c2ccccc2)ccc1O (stereo unspecified)
inactive: [14] 95 % of control | [15] 96 % of control | [16] 93 % of control

CC(Oc1cc(Cl)c(Cl)cc1Cl)C(=O)OCc1ccco1 (stereo unspecified)
inactive: [14] 110 % of control | dose: 100.0 mg/kg/injection, schedule: Q04DX002 (ip), vehicle: Klucel (hydroxypropylcellulose) (HPC) 100 % of control | [15] 100 % of control | dose: 200.0 mg/kg/injection, schedule: Q04DX002 (ip), vehicle: Klucel (hydroxypropylcellulose) (HPC) 103 % of control | [16] 104 % of control | dose: 400.0 mg/kg/injection, schedule: Q04DX002 (ip), vehicle: Klucel (hydroxypropylcellulose) (HPC) 100 % of control

Cc1ccc(C)c(NC(=S)NC(=O)c2ccc(Cl)cc2Cl)c1
inactive: [12] 104 % of control | dose: 100.0 mg/kg/injection, schedule: Q04DX002 (ip), vehicle: saline with Tween-80 95 % of control and 100 % of control | [17] 102 % of control | [13] 104 % of control | dose: 200.0 mg/kg/injection, schedule: Q04DX002 (ip), vehicle: saline with Tween-80 96 % of control and 110 % of control | [18] 105 % of control | dose: 400.0 mg/kg/injection, schedule: Q01DX001 (ip), vehicle: saline with Tween-80 100 % of control | dose: 400.0 mg/kg/injection, schedule: Q04DX002 (ip), vehicle: saline with Tween-80 96 % of control and 102 % of control | [19] 100 % of control

CCCCC(C)C(=O)Nc1cccc(O)c1 (stereo unspecified)
inactive: [14] 92 % of control | [15] 92 % of control | [16] 90 % of control

CC(C)(Oc1cccc2ccccc12)C(=O)O
inactive: [17] 100 % of control | [18] 105 % of control | [19] 93 % of control

O=CN/N=C\c1cc2ccccc2c2ccccc12
inactive: dose: 50.0 mg/kg/injection, schedule: Q01DX001 (ip), vehicle: carboxymethylcellulose (CMC) 96 % of control | [1] 93 % of control | [2] 93 % of control | [3] 87 % of control

O=C(Nc1ccc(CCO)cc1)Nc1cccc(F)c1
inactive: [4] 103 % of control | [6] 102 % of control | dose: 400.0 mg/kg/injection, schedule: Q01DX009 (ip), vehicle: Klucel (hydroxypropylcellulose) (HPC) 88 % of control

O=C(COc1ccc(Cl)cc1Cl)Nc1ccccc1[N+](=O)[O-]
inactive: dose: 100.0 mg/kg/injection, schedule: Q04DX002 (ip), vehicle: saline 92 % of control | dose: 200.0 mg/kg/injection, schedule: Q04DX002 (ip), vehicle: saline 92 % of control | dose: 400.0 mg/kg/injection, schedule: Q04DX002 (ip), vehicle: saline 92 % of control

CCCCCCCCCC(=S)N1CCN(c2ccccc2)CC1
inactive: dose: 100.0 mg/kg/injection, schedule: Q01DX001 (ip), vehicle: saline 95 % of control | dose: 200.0 mg/kg/injection, schedule: Q01DX001 (ip), vehicle: saline 93 % of control | dose: 400.0 mg/kg/injection, schedule: Q01DX001 (ip), vehicle: saline 90 % of control

Cc1ccccc1OCCO
inactive: [9] 101 % of control | [10] 97 % of control | [11] 106 % of control

O=C(O)/C=C/C=C/c1ccccc1
inactive: [17] 97 % of control | [18] 92 % of control | [19] 106 % of control

CCCCCCCN(CCCCCCC)CC(O)c1cc2ccc(Cl)cc2c2ncccc12 (stereo unspecified)
inactive: dose: 100.0 mg/kg/injection, schedule: Q01DX009 (sc), vehicle: olive oil, sesame oil, peanut oil 109 % of control | dose: 200.0 mg/kg/injection, schedule: Q01DX009 (sc), vehicle: olive oil, sesame oil, peanut oil 108 % of control | dose: 400.0 mg/kg/injection, schedule: Q01DX009 (sc), vehicle: olive oil, sesame oil, peanut oil 95 % of control

CC(=O)OC(OC(C)=O)c1ccc([N+](=O)[O-])o1
inactive: dose: 12.5 mg/kg/injection, schedule: Q04DX003 (ip), vehicle: Klucel (hydroxypropylcellulose) (HPC) 101 % of control | dose: 25.0 mg/kg/injection, schedule: Q04DX003 (ip), vehicle: Klucel (hydroxypropylcellulose) (HPC) 87 % of control | dose: 50.0 mg/kg/injection, schedule: Q04DX003 (ip), vehicle: Klucel (hydroxypropylcellulose) (HPC) 98 % of control | [5] 96 % of control
